Where “and” joins values, the source holds several entries; their conditions need not be identical. Equal entries are not always repeated.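 Method: 48-hour compound exposure of cells in 96-well plates, five concentrations, linear interpolation of endpoints. Here, GI50 denotes the concentration required for 50% inhibition of growth. TGI marks complete inhibition of growth.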
How the values were obtained:
Assay in all cases: NCI-60 cell line screen, 48 h
[1] = system: ACHN renal
[2] = system: CCRF-CEM leukemia
[3] = system: NCI-H522 lung
[4] = system: HS 578T breast
[5] = system: SK-MEL-2 melanoma
[6] = system: MDA-MB-231 breast
[7] = system: UO-31 renal
[8] = system: MOLT-4 leukemia
[9] = system: RXF 393 renal
[10] = system: DU-145 prostate

Compound	TGI [1]	TGI [2]	TGI [3]	TGI [4]	TGI [5]	TGI [6]	TGI [7]	TGI [8]	TGI [9]	TGI [10]	GI50 [1]	GI50 [2]	GI50 [3]	GI50 [4]	GI50 [5]	GI50 [6]	GI50 [7]	GI50 [8]	GI50 [9]	GI50 [10]
CCOc1cc(C=O)c2c(ccc3ccc(OC)c(OC)c32)c1OC	> 100 µM	> 100 µM	> 100 µM	> 100 µM	> 100 µM	> 100 µM	> 100 µM	> 100 µM	> 100 µM	> 100 µM										
O=C(CCCCCCC(=O)N/N=C/c1ccc(N(c2ccccc2)c2ccccc2)cc1)NO	7.39 µM	16.4 µM	6.92 µM	31.2 µM	7.81 µM	12.2 µM	4.4 µM	10.3 µM	7.06 µM	8.13 µM	2.28 µM	2.64 µM	1.92 µM	6.14 µM	2.71 µM	3.37 µM	1.44 µM	1.88 µM	2.27 µM	2.43 µM
C=CCCC(O)c1ccc(C(O)CCCCCCCCCCCC)o1 (stereo not given)	29.2 µM	> 100 µM	44.4 µM	55.4 µM	89.4 µM	38.5 µM	41.4 µM	38.3 µM	33.2 µM	46.9 µM	15.8 µM	18.4 µM	17.3 µM	24.2 µM	28.6 µM	20.1 µM	18.7 µM	7.16 µM	16 µM	22.6 µM
CC(=O)Oc1ccc2ccc(=O)oc2c1OC(C)=O	> 100 µM	46.1 µM	> 100 µM	> 100 µM	> 100 µM	> 100 µM	> 100 µM	> 100 µM	71.4 µM	> 100 µM										
CCCn1cc(C2=C(c3cn(C)c4ccccc34)C(=O)NC2=O)c2ccccc21	7.45 µM	> 11.2 µM	4.58 µM	16 µM	3.24 µM	16.9 µM	12 µM	> 17.8 µM	2.87 µM	> 22.4 µM	2.04 µM	0.79 µM	0.467 µM	0.766 µM	0.702 µM	3.91 µM	1.42 µM	2.45 µM	0.663 µM	1.34 µM
CN(CCCCCl)P(=O)(OCc1ccc([N+](=O)[O-])o1)C(F)(F)c1ccc(CC(=O)N[C@@H](CC(=O)O)C(=O)N[C@@H](Cc2ccc(C(F)(F)P(=O)(OCc3ccc([N+](=O)[O-])o3)N(C)CCCCCl)cc2)C(N)=O)cc1 (stereo not given in full)	> 100 µM	> 100 µM	> 100 µM	> 100 µM	57.4 µM	> 100 µM	> 100 µM	91.2 µM	> 100 µM	> 100 µM	> 100 µM	30.2 µM	35.7 µM	37.6 µM	21.6 µM	39.6 µM	> 100 µM	31.4 µM	> 100 µM	85.8 µM
O=C(CSc1nc2ccc([N+](=O)[O-])cc2[nH]1)Nc1cccc(Cl)c1	8.57 µM	> 100 µM	8.9 µM	19.4 µM	5.82 µM	6.55 µM	9.99 µM	40.4 µM	8.49 µM	18.4 µM	2.46 µM	3.1 µM	1.87 µM	2.95 µM	2 µM	2.12 µM	1.97 µM	3.2 µM	2.39 µM	3.68 µM
CCOC(=O)C1=C(N)Oc2c(sc3c(C)cccc23)C1c1ccc(Cl)cc1 (stereo not given)	17.6 µM	24.1 µM	6.28 µM	6.95 µM	22.4 µM	17.4 µM	16.7 µM	19.7 µM	4.47 µM	14.1 µM	3.17 µM	3.65 µM	1.22 µM	1.78 µM	5.83 µM	4.29 µM	3.03 µM	3.58 µM	1.45 µM	3.89 µM
Fc1ccc(CNc2c3ccccc3nc3ccccc23)cc1	5.64 µM	> 100 µM	4.24 µM	10.7 µM	6.01 µM	5.58 µM	4.14 µM	10.8 µM	5.4 µM	11.3 µM	1.93 µM	3.12 µM	1.66 µM	3.05 µM	2.39 µM	1.9 µM	1.2 µM	2.9 µM	2.07 µM	3.18 µM
COc1ccc2nc3cccc([N+](=O)[O-])c3c(NCCN(CCO)CCO)c2c1	0.0495 µM	0.247 µM	0.018 µM	0.272 µM	0.0224 µM	0.42 µM	0.184 µM	0.136 µM	0.032 µM	0.717 µM	0.0142 µM	0.0326 µM		0.0647 µM	0.0117 µM	0.0385 µM	0.0539 µM	0.0161 µM	0.0155 µM	0.014 µM
C/C(=N\Nc1ccc2ccccc2n1)c1ccccc1O	> 100 µM	> 29.4 µM	> 100 µM	> 100 µM	> 100 µM	> 100 µM	> 100 µM	> 58.5 µM	> 100 µM	> 100 µM										
CC(C)(C)C(=O)OCOP(=O)(OCOC(=O)C(C)(C)C)C1CCCN(OC(=O)c2ccccc2)C1=O (stereo not given)	11.7 µM	29.7 µM	1.5 µM	38.1 µM	11.4 µM	14.2 µM	2.36 µM	8.45 µM	4.8 µM	> 100 µM	0.666 µM	0.643 µM	0.338 µM	0.71 µM	1.99 µM	0.716 µM	0.297 µM	1.02 µM	0.545 µM	2.62 µM
CCCCCCCCCCCCOC1C(CNC(=O)C2OC3OC(C)(C)OC3C2NC(=O)CN2CCN(c3ccccn3)CC2)OC2OC(C)(C)OC21 (stereo not given)	3.21 µM	5.5 µM	3.2 µM	4.69 µM	3.32 µM	3.14 µM	2.72 µM	4.45 µM	2.74 µM	3.04 µM	1.77 µM	2.5 µM	1.66 µM	1.9 µM	1.65 µM	1.67 µM	1.42 µM	1.86 µM	1.36 µM	1.68 µM
CCCN(CCC)c1ccc(C=O)cc1	> 100 µM	> 100 µM	> 100 µM	> 100 µM	> 100 µM	> 100 µM	> 100 µM	> 100 µM	> 100 µM	> 100 µM	77.7 µM	30.2 µM	28 µM	> 62.1 µM	98.2 µM	> 100 µM	36.2 µM	29.8 µM	72.2 µM	46.7 µM
O=C(/C=C/C=C/c1ccccc1)c1ccc(Nc2nc(Nc3ccccc3)nc(Nc3ccccc3)n2)cc1	> 100 µM	> 100 µM	> 100 µM	> 100 µM	> 100 µM	> 100 µM	> 100 µM	35.8 µM	47.5 µM	> 100 µM	> 100 µM	19.4 µM	> 100 µM	29 µM	> 100 µM	34.7 µM	13.3 µM	9.89 µM	1.62 µM	43.6 µM
Cn1cc(C2=C(c3c4n(c5ccccc35)CC(CN)C4)C(=O)NC2=O)c2ccccc21 (stereo not given)	12.3 µM	25 µM	6.63 µM	5.6 µM	5.35 µM	9.76 µM	8.27 µM	15 µM	6.19 µM	9.53 µM	3.16 µM	4.82 µM	3 µM	1.03 µM	1.69 µM	3.78 µM	2.83 µM	3.4 µM	2.87 µM	4.02 µM
O=C1Nc2ccccc2C1(c1ccc(O)c(F)c1)c1ccc(O)c(F)c1	> 84 µM	73.3 µM	31.3 µM	4.44 µM	31.5 µM	35.5 µM	42.8 µM	67 µM	10.5 µM	42.7 µM	3.07 µM	17.8 µM	11.5 µM	0.3 µM	11.4 µM	13.4 µM	11.9 µM	10.6 µM	0.969 µM	11.9 µM
CS(=O)(=O)N1CCN(Cc2cc3nc(-c4cccc5[nH]ncc45)nc(N4CCOCC4)c3s2)CC1	> 100 µM	> 100 µM	> 28 µM	1.44 µM and 1.11 µM	> 100 µM	> 100 µM	> 4.03 µM	> 100 µM	1.54 µM and 1.03 µM	> 100 µM	0.382 µM and 0.319 µM	2.3 µM and 0.909 µM	0.602 µM and 0.37 µM	0.134 µM and 0.148 µM	1.27 µM and 0.325 µM	2.62 µM and 0.504 µM	0.174 µM and 0.105 µM	0.315 µM and 0.302 µM	0.209 µM and 0.165 µM	0.61 µM and 0.427 µM
O=S(=O)(O)c1ccc(Cl)cc1.[Cd]	> 100 µM	85.4 µM	6.79 µM	> 100 µM	40.4 µM	> 100 µM	> 100 µM	> 100 µM	79.3 µM	> 100 µM	> 100 µM	24.9 µM	1.99 µM	47 µM	19.2 µM	> 100 µM	> 100 µM	79.2 µM	27.3 µM	67.3 µM
NC(=O)c1nnn(Cc2cc(Cl)c(C(=O)c3ccc(Cl)cc3)c(Cl)c2)c1N	> 9.09 µM and 35.1 µM	> 100 µM	> 9.09 µM and 38.8 µM	> 64.3 µM	> 44 µM	> 52.8 µM	> 9.09 µM and 42.1 µM	> 90.7 µM	> 9.09 µM and 39.3 µM	> 53.5 µM		7.76 µM	> 9.09 µM		> 9.09 µM		> 9.09 µM	> 9.09 µM	> 9.09 µM	

— PubChem BioAssay (NCI)
